Test results from BindingDB's records for patent US10065963 (Incyte Corporation, 2018).

Columns and labels:
[1] = biological target: Tyrosine-protein kinase JAK1 (Homo sapiens, UniProt P23458); experiment: In Vitro JAK Kinase Assay; details: pH 7.8; 25 °C
[2] = biological target: Phosphatidylinositol 4,5-bisphosphate 3-kinase catalytic subunit gamma isoform (Homo sapiens, UniProt P48736); experiment: PI3K-gamma Scintillation Proximity Assay; details: pH 6.7; 25 °C
Procedure: PI3Kγ (p110γ) Recombinant Human Protein was purchased from Life technology (Grand Island, N.Y.). […] The final concentration of DMSO in the assay was 2%. […] ATP, 13 nM PI3Kγ. […] The final concentration of SPA beads is 1.0 mg/mL.

[3] = biological target: T1, Phosphatidylinositol 4,5-bisphosphate 3-kinase catalytic subunit delta isoform (Homo sapiens, UniProt O00329); experiment: PI3K-delta Scintillation Proximity Assay; details: pH 6.7; 25 °C
T1 sequence (O00329 whole entry): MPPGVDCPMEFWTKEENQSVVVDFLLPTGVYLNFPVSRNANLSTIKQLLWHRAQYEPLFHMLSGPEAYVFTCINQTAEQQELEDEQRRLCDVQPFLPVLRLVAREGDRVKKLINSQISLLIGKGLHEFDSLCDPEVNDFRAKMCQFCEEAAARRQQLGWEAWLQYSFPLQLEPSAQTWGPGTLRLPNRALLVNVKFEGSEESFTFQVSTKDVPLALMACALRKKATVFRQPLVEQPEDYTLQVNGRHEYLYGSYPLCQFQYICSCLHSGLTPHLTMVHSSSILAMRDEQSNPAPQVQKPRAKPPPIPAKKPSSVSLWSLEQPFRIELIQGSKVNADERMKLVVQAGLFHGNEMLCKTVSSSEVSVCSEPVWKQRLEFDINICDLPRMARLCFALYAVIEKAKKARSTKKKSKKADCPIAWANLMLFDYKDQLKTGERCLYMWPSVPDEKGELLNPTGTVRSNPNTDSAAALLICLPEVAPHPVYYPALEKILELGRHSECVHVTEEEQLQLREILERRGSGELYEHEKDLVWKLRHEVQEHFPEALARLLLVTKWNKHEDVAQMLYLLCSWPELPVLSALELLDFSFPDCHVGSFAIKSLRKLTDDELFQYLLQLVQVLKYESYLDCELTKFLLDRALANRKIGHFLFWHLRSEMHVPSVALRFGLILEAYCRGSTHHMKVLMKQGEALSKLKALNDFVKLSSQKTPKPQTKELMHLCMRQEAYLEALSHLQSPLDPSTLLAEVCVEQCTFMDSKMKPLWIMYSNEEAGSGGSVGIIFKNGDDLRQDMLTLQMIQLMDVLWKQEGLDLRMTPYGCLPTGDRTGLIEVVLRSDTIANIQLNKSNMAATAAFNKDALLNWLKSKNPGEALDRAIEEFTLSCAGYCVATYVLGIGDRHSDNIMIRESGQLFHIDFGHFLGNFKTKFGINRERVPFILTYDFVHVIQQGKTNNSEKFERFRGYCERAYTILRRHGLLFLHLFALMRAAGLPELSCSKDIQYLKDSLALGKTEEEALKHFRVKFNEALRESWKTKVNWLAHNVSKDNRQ

Chain of Phosphatidylinositol 4,5-bisphosphate 3-kinase catalytic subunit gamma isoform (P48736 whole entry, canonical isoform): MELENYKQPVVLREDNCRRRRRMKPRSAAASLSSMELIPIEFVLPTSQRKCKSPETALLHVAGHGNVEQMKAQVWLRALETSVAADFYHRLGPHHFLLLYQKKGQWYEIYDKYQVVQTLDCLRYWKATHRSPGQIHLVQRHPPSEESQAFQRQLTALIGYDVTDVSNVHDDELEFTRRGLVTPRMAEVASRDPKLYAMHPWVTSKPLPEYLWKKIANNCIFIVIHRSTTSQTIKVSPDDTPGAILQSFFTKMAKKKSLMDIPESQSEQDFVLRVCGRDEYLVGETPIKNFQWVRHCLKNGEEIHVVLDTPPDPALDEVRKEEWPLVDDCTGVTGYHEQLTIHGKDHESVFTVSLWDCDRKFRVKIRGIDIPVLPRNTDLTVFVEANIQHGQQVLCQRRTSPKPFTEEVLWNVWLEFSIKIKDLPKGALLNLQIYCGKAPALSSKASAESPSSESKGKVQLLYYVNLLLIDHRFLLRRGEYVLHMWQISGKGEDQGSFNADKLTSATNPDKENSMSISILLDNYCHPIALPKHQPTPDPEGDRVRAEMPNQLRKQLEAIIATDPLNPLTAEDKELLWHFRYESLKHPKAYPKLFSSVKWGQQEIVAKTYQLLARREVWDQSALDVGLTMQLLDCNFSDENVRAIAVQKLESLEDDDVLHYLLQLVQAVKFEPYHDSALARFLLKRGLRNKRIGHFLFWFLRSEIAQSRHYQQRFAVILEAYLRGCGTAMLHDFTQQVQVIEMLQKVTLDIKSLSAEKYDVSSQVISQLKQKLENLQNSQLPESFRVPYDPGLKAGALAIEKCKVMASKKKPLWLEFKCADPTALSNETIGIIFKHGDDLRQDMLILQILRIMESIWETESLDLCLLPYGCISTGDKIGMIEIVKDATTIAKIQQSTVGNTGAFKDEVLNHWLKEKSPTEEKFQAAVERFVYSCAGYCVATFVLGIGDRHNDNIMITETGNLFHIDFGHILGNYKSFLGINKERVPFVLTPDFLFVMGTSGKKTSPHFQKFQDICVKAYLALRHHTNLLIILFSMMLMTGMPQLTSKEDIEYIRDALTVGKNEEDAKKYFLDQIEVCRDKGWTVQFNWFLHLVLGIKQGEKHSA
Chain of Tyrosine-protein kinase JAK1 (P23458 whole entry, canonical isoform): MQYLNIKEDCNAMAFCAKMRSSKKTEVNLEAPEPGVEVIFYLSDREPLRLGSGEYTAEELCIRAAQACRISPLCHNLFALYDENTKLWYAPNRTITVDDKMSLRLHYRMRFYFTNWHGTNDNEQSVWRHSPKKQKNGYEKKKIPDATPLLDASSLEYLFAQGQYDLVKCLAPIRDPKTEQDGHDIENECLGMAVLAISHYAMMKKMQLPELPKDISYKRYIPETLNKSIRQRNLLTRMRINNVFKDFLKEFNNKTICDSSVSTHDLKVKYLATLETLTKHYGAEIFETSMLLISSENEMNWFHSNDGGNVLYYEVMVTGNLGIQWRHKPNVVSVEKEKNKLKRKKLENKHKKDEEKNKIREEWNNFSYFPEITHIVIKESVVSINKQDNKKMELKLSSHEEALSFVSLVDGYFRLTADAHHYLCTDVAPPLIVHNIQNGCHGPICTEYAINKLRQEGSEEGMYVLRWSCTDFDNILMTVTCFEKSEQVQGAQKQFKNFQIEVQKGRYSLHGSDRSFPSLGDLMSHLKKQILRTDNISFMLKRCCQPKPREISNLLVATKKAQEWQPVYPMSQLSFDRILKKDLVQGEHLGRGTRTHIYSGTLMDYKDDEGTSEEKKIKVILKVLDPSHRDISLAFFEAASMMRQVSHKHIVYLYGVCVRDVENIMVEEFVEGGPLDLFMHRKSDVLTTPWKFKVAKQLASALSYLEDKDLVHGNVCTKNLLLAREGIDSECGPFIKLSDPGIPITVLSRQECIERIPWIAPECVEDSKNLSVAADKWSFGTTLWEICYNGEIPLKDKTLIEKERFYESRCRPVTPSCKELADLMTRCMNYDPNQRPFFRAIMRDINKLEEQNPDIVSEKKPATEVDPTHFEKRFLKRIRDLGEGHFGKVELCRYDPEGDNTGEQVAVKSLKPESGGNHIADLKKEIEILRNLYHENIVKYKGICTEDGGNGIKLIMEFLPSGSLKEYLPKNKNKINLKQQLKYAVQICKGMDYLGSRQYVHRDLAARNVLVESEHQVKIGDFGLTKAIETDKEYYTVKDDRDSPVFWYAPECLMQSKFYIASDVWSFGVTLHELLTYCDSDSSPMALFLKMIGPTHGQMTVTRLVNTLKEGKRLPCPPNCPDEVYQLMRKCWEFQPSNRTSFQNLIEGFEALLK

| Structure (SMILES) | IC50 [1] | IC50 [2] | IC50 [3] |
| --- | --- | --- | --- |
| N#CCC(CN1CCN(C(=O)c2ccc(C#N)cc2F)CC1)n1cc(-c2ncnc3[nH]ccc23)cn1 (stereo not drawn) [US10065963, Compound 5] | < 0.1 µM | – | – |
| C[C@H](NC(=O)c1c(N)nn2cccnc12)c1cc(Cl)c2cncn2c1N1CCS(=O)(=O)[C@@H](C)C1 [US10065963, Example 31B] | – | < 0.1 µM | < 0.1 µM |
